Experimental data: article PMC10945556, “Design, Synthesis, and Antifungal Activity of 3-Substituted-2(5H)-Oxaboroles” (ACS Medicinal Chemistry Letters, 2024)

Tests used:
S. cerevisiae = assay: MIC, microbroth dilution; type: cell-based, Saccharomyces cerevisiae; settings: Saccharomyces cerevisiae
[1] = system: Methicillin resistant Staphylococcus aureus; assay: MIC, microbroth dilution; type: cell-based; settings: Staphylococcus aureus, S. aureus (MRSA)
P. chrysogenum = assay: MIC, dose-dependent solid media assay; type: cell-based, Penicillium chrysogenum; settings: Penicillium chrysogenum
B. cereus = assay: MIC, microbroth dilution; type: cell-based, Bacillus cereus; settings: Bacillus cereus
P. aeruginosa = assay: MIC, microbroth dilution; type: cell-based, Pseudomonas aeruginosa; settings: Pseudomonas aeruginosa
C. albicans = assay: MIC, microbroth dilution; type: cell-based, Candida albicans; settings: Candida albicans
A. flavus = assay: MIC, dose-dependent solid media assay; type: cell-based, Aspergillus flavus; settings: Aspergillus flavus
E. coli = assay: MIC, microbroth dilution; type: cell-based, Escherichia coli; settings: Escherichia coli
T. mentagrophytes = assay: MIC, dose-dependent solid media assay; type: cell-based, Trichophyton mentagrophytes; settings: Trichophyton mentagrophytes

Structure (SMILES)	MIC (S. cerevisiae) [mg/L]	MIC (S. cerevisiae; value in parentheses) [µM]	MIC [1] [mg/L]	MIC ([1]; value in parentheses) [µM]	MIC (P. chrysogenum) [mg/L]	MIC (P. chrysogenum; value in parentheses) [µM]	MIC (B. cereus) [mg/L]	MIC (B. cereus; value in parentheses) [µM]	MIC (P. aeruginosa) [mg/L]	MIC (P. aeruginosa; value in parentheses) [µM]	MIC (C. albicans) [mg/L]	MIC (C. albicans; value in parentheses) [µM]	MIC (A. flavus) [mg/L]	MIC (A. flavus; value in parentheses) [µM]	MIC (E. coli) [mg/L]	MIC (E. coli; value in parentheses) [µM]	MIC (T. mentagrophytes) [mg/L]	MIC (T. mentagrophytes; value in parentheses) [µM]
OB1OCc2cc(F)ccc21 [Compound 1, tavaborole, reference compound]	0.26 ± 0.06	1.71	~50	> 329	1 ± 0.3	6.58	> 50	> 329	> 50	> 329	2.3 ± 0.8	15.1	0.78	5.14	17 ± 4	112	0.78	5.14
OB1OCC=C1c1ccccc1 [Compound 6a]	6.25	39.1	> 50	> 313	50	313	> 50	313	> 50	> 313	> 50	> 313	> 50	> 313	> 50	> 313	> 50	> 313
OB1OCC=C1c1cccc(F)c1 [Compound 6c]	10.4 ± 2	58.4	> 50	> 281	25	140	> 50	> 281	> 50	> 281	> 50	> 281	50	281	> 50	> 281	50	281
OB1OCC=C1c1ccccc1F [Compound 6d]	21 ± 4	118	> 50	> 281	25	140	> 50	> 281	> 50	> 281	> 50	> 281	> 50	> 281	> 50	> 281	> 50	> 281
OB1OCC=C1c1cccc(Cl)c1 [Compound 6f]	21 ± 4	108	> 50	> 258	12.5	64.4	> 50	> 258	> 50	> 258	> 50	> 258	25	129	> 50	> 258	25	129
OB1OCC=C1c1ccccc1Cl [Compound 6g]	50	258	> 50	> 258	> 50	> 258	> 50	> 258	> 50	> 258	> 50	> 258	> 50	> 258	> 50	> 258	> 50	> 258
OB1OCC=C1c1ccccc1Br [Compound 6j]	> 50	> 210	> 50	> 210	> 50	> 210	> 50	> 210	> 50	> 210	> 50	> 210	> 50	> 210	> 50	> 210	> 50	> 210
Cc1cc(F)cc(C2=CCOB2O)c1 [Compound 6k]	12.5	65.1	> 50	> 260	12.5	65.1	> 50	> 260	> 50	> 260	> 50	> 260	42 ± 8	219		> 260	42 ± 8	219
